From ChEMBL document CHEMBL2434936, “Bicyclic and tricyclic heterocycle derivatives as histamine H3 receptor antagonists for the treatment of obesity” (Bioorg Med Chem Lett, 2013)
Active and inactive are the calls of the source. The calls are words filed in the database; no cut-off is given here.

Experiments:
Histamine H3 receptor [1] = biological target: Histamine H3 receptor (Homo sapiens, UniProt Q9Y5N1); assay: Displacement of [3H]N-alpha-methylhistamine from human recombinant histamine H3 receptor expressed in HEK cells after 30 mins by scintillation counting analysis; assay type: cell-based, HEK293
Histamine H3 receptor [2] = biological target: Histamine H3 receptor (Mus musculus, UniProt P58406); assay: Displacement of [3H]N-alpha-methylhistamine from mouse histamine H3 receptor after 30 mins by scintillation counting analysis
Mus musculus [3] = assay: Ex vivo displacement of [3H]N-alpha-methylhistamine from histamine H3 receptor in mouse cortex at 10 mg/kg, po after 4 hrs by topcount scintillation counting analysis; assay type: functional
Cytochrome P450 3A4 = Cytochrome P450 3A4 (Homo sapiens, UniProt P08684); assay: Inhibition of CYP3A4 in human liver microsomes; assay type: ADME, Microsome
hERG (KCNH2) = hERG (KCNH2) (Homo sapiens, UniProt Q12809); assay: Inhibition of human ERG channel at 5 ug/ml after 30 mins by rubidium efflux assay
Cytochrome P450 2C9 = Cytochrome P450 2C9 (Homo sapiens, UniProt P11712); assay: Inhibition of CYP2C9 in human liver microsomes; assay type: ADME, Microsome
Cytochrome P450 2D6 = Cytochrome P450 2D6 (Homo sapiens, UniProt P10635); assay: Inhibition of CYP2D6 in human liver microsomes; assay type: ADME, Microsome
Mus musculus [4] = assay: Antiobesity activity in diet-induced obesity mouse model assessed as reduction in body weight at 10 mg/kg, po after 4 days relative to vehicle-treated control; assay type: functional; conditions: 96 h
Mus musculus [5] = assay: Antiobesity activity in diet-induced obesity mouse model assessed as reduction in body weight at 3 mg/kg, po after 4 days relative to vehicle-treated control; assay type: functional; conditions: 96 h
Mus musculus [6] = assay: Antiobesity activity in diet-induced obesity mouse model assessed as reduction in body weight at 1 mg/kg, po after 4 days relative to vehicle-treated control; assay type: functional; conditions: 96 h
Mus musculus [7] = assay: Ex vivo displacement of [3H]N-alpha-methylhistamine from histamine H3 receptor in mouse cortex at 3 mg/kg, po after 4 hrs by topcount scintillation counting analysis; assay type: functional
[8] = Drug uptake in rat brain at 300 mg/kg, po after 4 hrs by Irwin test; assay type: ADME, organism-based; design: dose 300 mg/kg, route oral; conditions: read-out: Drug uptake
[9] = Drug uptake in rat brain at 100 mg/kg, po after 4 hrs by Irwin test; assay type: ADME, organism-based; design: dose 100 mg/kg, route oral; conditions: read-out: Drug uptake
[10] = Plasma concentration in rat at 100 mg/kg, po after 4 hrs by Irwin test; assay type: ADME, organism-based; design: dose 100 mg/kg, route oral
Rattus norvegicus = assay: Toxicity in rat assessed as behavioral change at 100 to 300 mg/kg, po by Irwin test; assay type: organism-based; design: dose 100-300 mg/kg, route oral; conditions: in vivo
Mus musculus [11] = species: Mus musculus; assay: Ex vivo receptor occupancy of histamine H3 receptor in mouse brain after 72 hrs by time-course method; assay type: functional, organism-based
[12] = Plasma concentration in rat at 300 mg/kg, po after 4 hrs by Irwin test; assay type: ADME, organism-based; design: dose 300 mg/kg, route oral
Mus musculus [13] = assay: Ex vivo displacement of [3H]N-alpha-methylhistamine from histamine H3 receptor in mouse cortex at 1 mg/kg, po after 4 hrs by topcount scintillation counting analysis; assay type: functional

Sequence of Histamine H3 receptor (Mus musculus, UniProt P58406) (P58406 whole entry): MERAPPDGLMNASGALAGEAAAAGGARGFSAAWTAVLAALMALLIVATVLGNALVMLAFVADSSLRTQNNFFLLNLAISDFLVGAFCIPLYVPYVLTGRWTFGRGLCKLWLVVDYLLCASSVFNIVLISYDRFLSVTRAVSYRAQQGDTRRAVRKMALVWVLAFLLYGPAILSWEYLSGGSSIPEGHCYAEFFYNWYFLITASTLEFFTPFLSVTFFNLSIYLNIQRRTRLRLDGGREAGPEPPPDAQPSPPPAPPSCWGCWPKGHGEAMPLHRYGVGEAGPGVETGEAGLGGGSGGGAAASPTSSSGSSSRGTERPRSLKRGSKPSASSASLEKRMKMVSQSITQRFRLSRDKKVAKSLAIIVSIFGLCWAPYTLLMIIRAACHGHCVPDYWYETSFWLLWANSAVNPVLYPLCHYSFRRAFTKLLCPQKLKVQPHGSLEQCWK
Sequence of Cytochrome P450 2C9 (P11712 whole entry): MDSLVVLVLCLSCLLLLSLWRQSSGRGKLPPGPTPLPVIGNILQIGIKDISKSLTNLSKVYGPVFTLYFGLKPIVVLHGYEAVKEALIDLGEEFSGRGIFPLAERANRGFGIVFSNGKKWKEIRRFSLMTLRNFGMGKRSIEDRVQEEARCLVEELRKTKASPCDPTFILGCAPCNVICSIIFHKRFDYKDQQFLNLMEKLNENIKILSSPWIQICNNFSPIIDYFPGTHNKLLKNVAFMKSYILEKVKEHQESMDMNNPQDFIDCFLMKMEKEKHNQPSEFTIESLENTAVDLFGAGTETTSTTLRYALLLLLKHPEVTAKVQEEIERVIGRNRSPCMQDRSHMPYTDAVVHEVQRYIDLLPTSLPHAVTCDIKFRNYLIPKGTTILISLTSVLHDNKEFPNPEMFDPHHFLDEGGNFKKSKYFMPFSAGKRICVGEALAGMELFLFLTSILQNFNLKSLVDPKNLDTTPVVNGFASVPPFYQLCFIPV
Sequence of Cytochrome P450 2D6 (P10635 whole entry): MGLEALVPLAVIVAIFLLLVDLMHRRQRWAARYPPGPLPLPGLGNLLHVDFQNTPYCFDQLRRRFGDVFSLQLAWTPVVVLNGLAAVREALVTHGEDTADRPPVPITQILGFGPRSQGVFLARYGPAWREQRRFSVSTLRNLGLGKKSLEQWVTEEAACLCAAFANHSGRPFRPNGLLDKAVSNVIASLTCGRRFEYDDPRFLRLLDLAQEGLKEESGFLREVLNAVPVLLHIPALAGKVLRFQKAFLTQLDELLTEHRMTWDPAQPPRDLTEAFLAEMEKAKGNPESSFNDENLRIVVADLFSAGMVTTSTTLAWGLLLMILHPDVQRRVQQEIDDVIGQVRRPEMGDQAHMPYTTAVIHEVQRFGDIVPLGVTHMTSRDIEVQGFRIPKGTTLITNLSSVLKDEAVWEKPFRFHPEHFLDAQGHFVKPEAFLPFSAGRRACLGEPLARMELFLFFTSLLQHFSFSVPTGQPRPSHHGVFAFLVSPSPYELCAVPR
Sequence of Histamine H3 receptor (Homo sapiens, UniProt Q9Y5N1) (Q9Y5N1 whole entry): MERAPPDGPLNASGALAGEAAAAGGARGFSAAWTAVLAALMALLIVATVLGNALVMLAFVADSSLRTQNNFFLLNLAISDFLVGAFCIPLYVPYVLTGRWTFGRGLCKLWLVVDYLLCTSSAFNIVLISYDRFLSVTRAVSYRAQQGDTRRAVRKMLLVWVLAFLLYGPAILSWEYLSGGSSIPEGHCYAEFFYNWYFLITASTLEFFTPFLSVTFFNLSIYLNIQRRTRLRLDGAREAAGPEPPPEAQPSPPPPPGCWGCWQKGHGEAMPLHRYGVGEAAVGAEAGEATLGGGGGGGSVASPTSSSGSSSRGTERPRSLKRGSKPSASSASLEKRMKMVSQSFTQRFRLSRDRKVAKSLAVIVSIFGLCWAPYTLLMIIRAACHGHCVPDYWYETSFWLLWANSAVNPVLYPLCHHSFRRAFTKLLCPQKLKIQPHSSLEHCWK
Sequence of Cytochrome P450 3A4 (P08684 whole entry): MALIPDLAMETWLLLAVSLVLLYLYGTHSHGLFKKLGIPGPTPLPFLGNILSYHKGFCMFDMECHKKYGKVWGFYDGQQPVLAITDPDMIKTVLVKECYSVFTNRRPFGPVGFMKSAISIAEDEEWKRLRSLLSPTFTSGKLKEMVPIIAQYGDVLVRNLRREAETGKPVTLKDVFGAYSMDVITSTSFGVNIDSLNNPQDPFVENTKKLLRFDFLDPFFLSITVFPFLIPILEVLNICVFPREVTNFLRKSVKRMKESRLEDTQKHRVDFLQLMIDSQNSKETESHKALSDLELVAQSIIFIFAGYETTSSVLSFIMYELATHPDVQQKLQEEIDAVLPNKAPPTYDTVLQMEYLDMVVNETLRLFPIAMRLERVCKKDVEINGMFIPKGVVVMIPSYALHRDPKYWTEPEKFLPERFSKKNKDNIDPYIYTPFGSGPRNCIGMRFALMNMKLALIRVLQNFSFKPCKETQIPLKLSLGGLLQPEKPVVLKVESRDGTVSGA
Sequence of hERG (KCNH2) (Q12809 whole entry): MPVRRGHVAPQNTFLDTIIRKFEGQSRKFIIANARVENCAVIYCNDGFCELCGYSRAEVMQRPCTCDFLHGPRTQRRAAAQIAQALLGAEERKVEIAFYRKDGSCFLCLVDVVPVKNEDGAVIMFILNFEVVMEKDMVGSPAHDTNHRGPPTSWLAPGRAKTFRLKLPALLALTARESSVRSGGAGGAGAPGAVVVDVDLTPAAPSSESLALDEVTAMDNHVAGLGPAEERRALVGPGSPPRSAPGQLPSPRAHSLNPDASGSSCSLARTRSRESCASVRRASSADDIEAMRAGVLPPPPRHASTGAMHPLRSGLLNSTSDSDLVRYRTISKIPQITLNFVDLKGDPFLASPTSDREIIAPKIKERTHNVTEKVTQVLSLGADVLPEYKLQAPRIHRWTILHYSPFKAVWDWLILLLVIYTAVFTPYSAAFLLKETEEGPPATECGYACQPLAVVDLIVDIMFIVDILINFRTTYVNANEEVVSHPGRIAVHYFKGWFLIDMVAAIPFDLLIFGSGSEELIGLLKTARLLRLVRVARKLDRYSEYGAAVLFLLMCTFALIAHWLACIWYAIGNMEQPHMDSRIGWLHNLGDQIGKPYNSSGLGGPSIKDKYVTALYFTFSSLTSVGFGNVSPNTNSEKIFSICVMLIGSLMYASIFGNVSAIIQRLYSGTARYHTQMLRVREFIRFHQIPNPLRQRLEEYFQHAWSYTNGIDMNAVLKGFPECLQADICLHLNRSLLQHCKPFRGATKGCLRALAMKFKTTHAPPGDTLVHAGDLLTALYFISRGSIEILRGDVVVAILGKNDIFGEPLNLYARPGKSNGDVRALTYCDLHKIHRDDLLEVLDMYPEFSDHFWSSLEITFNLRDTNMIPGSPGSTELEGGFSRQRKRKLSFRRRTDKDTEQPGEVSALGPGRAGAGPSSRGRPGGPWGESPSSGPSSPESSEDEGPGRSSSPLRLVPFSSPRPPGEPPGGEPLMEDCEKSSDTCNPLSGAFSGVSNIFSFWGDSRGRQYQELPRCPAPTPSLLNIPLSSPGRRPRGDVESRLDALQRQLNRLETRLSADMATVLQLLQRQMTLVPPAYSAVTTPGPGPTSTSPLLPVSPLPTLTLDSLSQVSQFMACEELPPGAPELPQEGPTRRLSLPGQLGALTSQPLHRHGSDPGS

Row | Ki (Histamine H3 receptor [1]) [nM] | Ki (Histamine H3 receptor [2]) [nM] | IC50 (Cytochrome P450 3A4) [nM] | IC50 (Cytochrome P450 2C9) [nM] | IC50 (Cytochrome P450 2D6) [nM] | concentration at 4 h [8] [ng/g] | concentration at 4 h [9] [ng/g] | concentration at 4 h [10] [ng/mL] | Activity (Mus musculus [11]) | concentration at 4 h [12] [ng/mL] | Compound | inhibition in vivo at 10 mg/kg (Mus musculus [3]) [%] | inhibition at 0.5 h, 5 ug/ml (hERG (KCNH2)) [%] | inhibition in vivo at 10 mg/kg (Mus musculus [4]) [%] | inhibition in vivo at 3 mg/kg (Mus musculus [5]) [%] | inhibition in vivo at 1 mg/kg (Mus musculus [6]) [%] | inhibition in vivo at 3 mg/kg (Mus musculus [7]) [%] | Activity (Rattus norvegicus) | inhibition in vivo at 1 mg/kg (Mus musculus [13]) [%]
1 | 7 | 15 |  |  |  |  |  |  |  |  | Nc1cc(CN2CCC(F)(C(=O)N3CCC(N4Cc5cccnc5C4)CC3)CC2)ccn1 |  |  |  |  |  |  |  | 
2 | 1 | 2 | > 30000 | > 30000 | > 30000 |  |  |  |  |  | Cc1nnc2n1-c1sccc1CN(C1CCN(C(=O)C3(F)CCN(Cc4ccnc(N)c4)CC3)CC1)C2 | 14 | 9 |  |  |  |  |  | 
3 | 2 | 4 | 18000 | > 30000 | 300 |  |  |  |  |  | Nc1cc(CN2CCC(F)(C(=O)N3CCC(N4Cc5ccccc5-c5ccccc5C4)CC3)CC2)ccn1 |  | 27 | 65 | 38 | 28 | 91 |  | 
4 | 1 | 3 | > 30000 | > 30000 | > 30000 | 47100 | 13700 | 836 | Active | 4940 | Nc1cc(CN2CCC(F)(C(=O)N3CCC(N4CCc5ccccc5CC4)CC3)CC2)ccn1 | 98 | -2 | 89 | 52 | 38 |  | Non-toxic | 
5 | 2 | 4 | > 30000 | > 30000 | > 30000 |  |  |  |  |  | Nc1cc(CN2CCC(F)(C(=O)N3CCC(N4CCc5ccccc5C4)CC3)CC2)ccn1 |  | 2 |  |  |  |  |  | 73
6 | 2 | 4 | > 30000 | > 30000 | > 30000 |  |  |  |  |  | Nc1cc(CN2CCC(F)(C(=O)N3CCC(N4Cc5ccccc5C4)CC3)CC2)ccn1 |  | -2 |  |  |  |  |  | 81
7 | 2 | 2 | > 30000 | > 30000 | > 30000 |  |  |  |  |  | N#Cc1ccc2c(c1)CN(C1CCN(C(=O)C3(F)CCN(Cc4ccnc(N)c4)CC3)CC1)CC2 |  | 11 |  |  |  |  |  | 52
8 | 1 | 3 | > 30000 | > 30000 | > 30000 |  |  |  |  |  | Nc1cc(CN2CCC(F)(C(=O)N3CCC(N4CCNc5ccccc5C4)CC3)CC2)ccn1 |  | 12 |  |  |  | 22 |  | 
9 | 7 | 7 | > 30000 | > 30000 | > 30000 |  |  |  |  |  | Nc1cc(CN2CCC(F)(C(=O)N3CCC(N4c5ccccc5Sc5ccccc54)CC3)CC2)ccn1 | 84 | 40 |  |  |  |  |  | 
10 | 36 | 115 | > 30000 | > 30000 | > 30000 |  |  |  |  |  | Nc1cc(CN2CCC(F)(C(=O)N3CCC(N4CCCc5ccccc5C4)CC3)CC2)ccn1 | 78 | 25 |  |  |  |  |  | 
11 | 11 | 51 |  |  |  |  |  |  |  |  | Nc1cc(CN2CCC(F)(C(=O)N3CCC(N4c5ccccc5Sc5ccc(C(F)(F)F)cc54)CC3)CC2)ccn1 | 25 | 79 |  |  |  |  |  | 
12 | 15 | 46 | > 30000 | > 30000 | > 30000 |  |  |  |  |  | Cn1c2c(c3ccccc31)CCN(C1CCN(C(=O)C3(F)CCN(Cc4ccnc(N)c4)CC3)CC1)CC2 |  | 21 |  |  |  |  |  | 
13 | 27 | 70 | > 30000 | > 30000 | > 30000 |  |  |  |  |  | Cc1nnc2n1-c1sccc1C(=O)N(C1CCN(C(=O)C3(F)CCN(Cc4ccnc(N)c4)CC3)CC1)C2 | 0 | 6 |  |  |  |  |  | 
14 | 1 | 3 | > 30000 | > 30000 | > 30000 |  |  |  |  |  | COc1ccc2c(c1)CCCN(C1CCN(C(=O)C3(F)CCN(Cc4ccnc(N)c4)CC3)CC1)C2 | 74 | 12 |  |  |  |  |  | 
15 | 4 | 44 | 18000 | 4000 | > 30000 |  |  |  |  |  | Nc1cc(CN2CCC(F)(C(=O)N3CCC(N4Cc5ccccc5Cc5ccccc54)CC3)CC2)ccn1 |  | 50 |  |  |  |  |  | 
16 | 2 | 4 | > 30000 | > 30000 | > 30000 |  |  |  |  |  | COc1ccc2c(c1)CN(C1CCN(C(=O)C3(F)CCN(Cc4ccnc(N)c4)CC3)CC1)CCC2 | 77 | 7 |  |  |  |  |  | 
17 | 2 | 7 | > 30000 | > 30000 | > 30000 |  |  |  |  |  | Nc1cc(CN2CCC(F)(C(=O)N3CCC(N4Cc5ccc(F)cc5C4)CC3)CC2)ccn1 |  | 4 |  |  |  | 94 |  | 
18 | 7 | 26 |  |  |  |  |  |  |  |  | Nc1cc(CN2CCC(F)(C(=O)N3CCC(N4c5ccccc5Sc5cccnc54)CC3)CC2)ccn1 | 89 | 54 |  |  |  |  |  | 
